“Also recorded” adds a separate entry of the source. Read-outs that look alike come from different tables or passages of the source.
How the values were obtained:
SOCS2 (SBC2) [1] = biological target: T1, SOCS2 (SBC2) (Homo sapiens, UniProt O14508); test: Intact ESI-MS of recombinant protein, covalent modification; assay type: biochemical; conditions: SOCS2 WT + MN551 (1:1, 40 µM)
T1 construct: SOCS2 (amino acids 32–198); His6 (N, cleaved yes); made in house; host or cells: E. coli BL21(DE3)

SBC2 [2] = biological target: T2, SBC2 (Homo sapiens, UniProt O14508); test: Isothermal titration calorimetry (ITC), direct titration; assay type: binding
T2 construct: SOCS2 (amino acids 32–198); His6 (N, cleaved yes); made in house; host or cells: E. coli BL21(DE3)
T2 sequence (Q15370 1-104 partner limits assumed, one chain of several): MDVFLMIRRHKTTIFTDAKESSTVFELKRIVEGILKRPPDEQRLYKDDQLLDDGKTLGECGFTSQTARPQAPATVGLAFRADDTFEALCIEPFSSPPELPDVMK
T2 sequence (Q15369 17-112 partner limits assumed, one chain of several): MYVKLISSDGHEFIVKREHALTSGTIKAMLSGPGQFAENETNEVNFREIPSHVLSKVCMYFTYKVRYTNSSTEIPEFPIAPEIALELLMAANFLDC
Experimental: Experiments were performed with ITC200 instrument (Malvern) in 100 mM HEPES pH 7.5, 50 mM NaCl, 0.5 mM TCEP at 298 K. The ITC titration consisted of 0.4 μl initial injection (discarded during data analysis) followed by 19 of 2 μl injections at 120 s interval between injections. 1 mM of the ligands in 2–4% DMSO were titrated into 100 μM SBC2. […] Binding data was subtracted from a control titration where ligand was titrated into buffer, and fitted using a one-set-of-site binding model to obtain dissociation constant (Kd), binding enthalpy (ΔH), and stoichiometry (N) using MicroCal PEAQ-ITC Analysis Software1.1.0.1262 and MicroCal ITC-ORIGIN Analysis Software 7.0 (Malvern).

SOCS2 [3] = biological target: T3, SOCS2 (Homo sapiens, UniProt O14508); test: SOCS2 pulldown with biotinylated GHR_pY595 peptide from K562 cell lysates preincubated with compound; assay type: biochemical
T3 construct: endogenous SOCS2 from K562 lysates; endogenous in cells; host or cells: K562
T3 sequence (O14508 1-198): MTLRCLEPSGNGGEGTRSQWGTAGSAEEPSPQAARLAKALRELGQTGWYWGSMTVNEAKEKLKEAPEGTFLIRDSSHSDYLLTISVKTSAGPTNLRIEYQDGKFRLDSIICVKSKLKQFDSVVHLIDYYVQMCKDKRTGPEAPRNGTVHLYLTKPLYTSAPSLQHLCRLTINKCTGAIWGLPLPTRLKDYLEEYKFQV
Experimental: (§1) Pulldown of cellular SOCS2 was abrogated when K562 cells were pre-treated for 6 h with MN714 prior to cell lysis, further evidencing the inhibitor cell permeability and specific target engagement (Fig. 6c).
(§2) K562 cells were treated with either DMSO or 10 µM MN714 for 6 h before being lysed. For experiments with MN551, DMSO-treated lysate was used. DMSO-treated K562 lysate (1 mg/ml) was pre-cleared using control agarose beads (Pierce Control Agarose Resin, 26150) which were washed thrice using 50 mM Tris pH 7.4, 150 mM NaCl buffer. […] Unbound peptide was washed off through 3× cycles of buffer wash and spin. Beads were resuspended to a total volume of 100 µl per IP sample. 100 µl beads with immobilized peptides was added to the MN551 lysate tubes. Samples were incubated for 40 min at room temperature. Samples were spun and unbound supernatant was removed. Beads were washed 3× with 0.05% NP40, 50 mM Tris pH 7.4, 150 mM NaCl buffer before being resuspended in 35 µl 1× LDS. Samples were heated for 10 min at 95 °C after which the elute was transferred to a fresh tube. 20 µl of each sample was analyzed by Western Blot (4-12% Bis-Tris gel 180 V, 60 mins) before blotting for SOCS2 (ab109245, 1:1000 dilution) overnight at 4 °C. Uncropped blot images collected with ChemiDoc Touch imaging system (BioRad) operated by Image Lab (v2.4.0.03) and antibody validation provided in Source Data. […]

SOCS2 (SBC2) [4] = biological target: T1, SOCS2 (SBC2); test: Intact ESI-MS of recombinant protein, covalent modification; assay type: biochemical
Experimental: SBC2 protein (40 µM), SBC2 C111S, SBC4, SBC6, or CISH were incubated with an equimolar concentration of MN551 in 50 mM Tris, pH 8.0, 50 mM NaCl, 1 mM TCEP. At defined time points 20 µl samples were removed and the protein precipitated by the addition of 80 µl methanol. The precipitated protein was pelleted by centrifugation, washed with 500 µl methanol, and resuspended in an aqueous solution of 15% acetonitrile and 1% TFA. Samples were separated by HPLC on a C3 column using a 10–75% gradient of acetonitrile and analyzed using an Agilent 6130 quadrupole MS. Spectra were deconvoluted and integrated using Agilent LC/MSD ChemStation.

SBC2 [5] = biological target: T2, SBC2; test: Differential scanning fluorimetry (DSF); assay type: binding; conditions: 5 µM SBC2 + 100 µM MN551
Experimental: DSF experiments were performed on a Biorad CFX96 RT-PCR machine. […] of SBC2 were incubated with […] MN551 (2 % DMSO) or DMSO control in 50 mM Tris, pH 8.0, 50 mM NaCl and 6.6 × SYPRO Orange. The temperature was ramped up in 1 °C steps between 25 and 95 °C with 30 s incubation at each step. Melting curves were analyzed by determining the minimum of the first derivative using the Biorad CFX Manager software.

SOCS2 [6] = biological target: T3, SOCS2; test: SOCS2 pulldown with biotinylated GHR_pY595 peptide from K562 cells pre-treated with compound; assay type: cell-based; conditions: K562 cells pre-treated with 10 µM for 6 h
Experimental: as §1, §2

T1 sequence (Q15369 17-112, one chain of several, further chain): as the sequence (Q15369 17-112 partner limits assumed, one chain of several) above
T1 sequence (Q15370 1-104, one chain of several, further chain): as the sequence (Q15370 1-104 partner limits assumed, one chain of several) above

Structure (SMILES)	% modified (SOCS2 (SBC2) [1]; t = 0 min) [%]	% modified (SOCS2 (SBC2) [1]; t = 5 min) [%]	% modified (SOCS2 (SBC2) [1]; t = 10 min) [%]	% modified (SOCS2 (SBC2) [1]; t = 20 min) [%]	% modified (SOCS2 (SBC2) [1]; t = 40 min) [%]	% modified (SOCS2 (SBC2) [1]; t = 60 min) [%]	% modified (SOCS2 (SBC2) [1]; t = 90 min) [%]	% modified (SOCS2 (SBC2) [1]; t = 120 min) [%]	Ki (SBC2 [2]) [µM]	Kd (SBC2 [2]; ITC KD, direct ITC, 298 K) [µM]	IC50 (SOCS2 [3]; K562 cell lysates, mean ± SEM, technical replicates = 2, read-out: IC50 of reduction of SOCS2 pulled down with biotinylated GHR pY595) [µM]	IC50 (SOCS2 [3]; K562 lysates, version shown in the peer review file, read-out: apparent IC50 of blockade of SOCS2 pull-down) [µM]	covalent adduct observed by intact mass analysis (SOCS2 (SBC2) [4]; SBC2 (40 µM) treated with MN551 (40 µM))	time to stoichiometric occupancy at Cys111 (SOCS2 (SBC2) [4]; recombinant SOCS2, equimolar compound) [h]	ΔTm, shift in the melting temperature of SBC2 (SBC2 [5]) [°C]	pulldown of cellular SOCS2 with GHR pY595 peptide (SOCS2 [6])
O=C(CCl)Nc1cccc(CNC(=O)[C@H](Cc2ccc(OP(=O)(O)O)cc2)NC(=O)Cc2ccc(F)cc2)c1 [MN551]	0.0	12.6	18.9	41.4	73.7	88.0	100.0	100.0	2.2	2.18 ± 0.6	5.9 ± 2.6	9	1:1 covalent SOCS2:MN551 adduct and single covalent adduct	≤ 2	6	–
CC(C)(C)C(=O)OCOP(=O)(OCOC(=O)C(C)(C)C)Oc1ccc(C[C@H](NC(=O)Cc2ccc(F)cc2)C(=O)NCc2cccc(NC(=O)CCl)c2)cc1 [MN714]	–	–	–	–	–	–	–	–	–	–	–	–	–	–	–	abrogated; also recorded: effective blockade of SOCS2-GHRpY interaction
